From patent US12023333B2, “Phenyl-sulfamoyl.benzoyc acids as ERAP1 modulators” (GREY WOLF THERAPEUTICS LIMITED, priority 2019, dated 2024)

target: T1, Purified ERAP1(37-941)-10His (ERAP1) (Homo sapiens, UniProt Q9NZ08); assay: ERAP1 mediated hydrolysis of an amide substrate measured in a biochemical system (10-mer decapeptide substrate); conditions: 10-mer substrate, 23° C. for 1 h, excitation 279 nm and emission 355 nm; read-out: IC50 vs Decapeptide WRVYEKC(Dnp)ALK-acid (where Dnp is Dinitrophenyl maleimide) (10-mer)
T1 construct: Purified ERAP1(37-941)-10His (ERAP1); 10His (C)
T1 sequence (Q9NZ08 37-941): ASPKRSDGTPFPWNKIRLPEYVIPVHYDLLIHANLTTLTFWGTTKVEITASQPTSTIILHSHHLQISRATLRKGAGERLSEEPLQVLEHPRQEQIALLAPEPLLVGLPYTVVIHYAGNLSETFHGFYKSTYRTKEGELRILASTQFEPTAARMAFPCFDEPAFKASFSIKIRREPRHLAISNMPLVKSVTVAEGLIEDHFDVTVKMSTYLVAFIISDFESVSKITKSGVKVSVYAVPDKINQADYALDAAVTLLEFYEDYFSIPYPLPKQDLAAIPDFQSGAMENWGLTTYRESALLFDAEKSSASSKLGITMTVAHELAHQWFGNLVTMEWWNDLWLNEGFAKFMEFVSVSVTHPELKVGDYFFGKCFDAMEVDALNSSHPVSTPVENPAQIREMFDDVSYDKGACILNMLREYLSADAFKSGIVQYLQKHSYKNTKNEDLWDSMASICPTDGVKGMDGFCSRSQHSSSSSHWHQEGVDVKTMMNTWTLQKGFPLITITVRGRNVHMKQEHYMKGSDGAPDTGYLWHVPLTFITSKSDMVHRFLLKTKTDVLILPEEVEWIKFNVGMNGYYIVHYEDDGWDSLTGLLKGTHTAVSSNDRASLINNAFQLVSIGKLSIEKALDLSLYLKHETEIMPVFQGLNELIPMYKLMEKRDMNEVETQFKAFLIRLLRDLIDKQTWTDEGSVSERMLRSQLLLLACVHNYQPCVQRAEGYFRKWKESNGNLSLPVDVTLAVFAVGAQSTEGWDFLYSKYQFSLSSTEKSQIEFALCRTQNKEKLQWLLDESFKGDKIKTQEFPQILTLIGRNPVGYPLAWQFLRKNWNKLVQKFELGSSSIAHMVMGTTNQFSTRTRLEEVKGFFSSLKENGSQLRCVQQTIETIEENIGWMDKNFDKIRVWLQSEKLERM
Outline: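 ERAP1(37-941)-10His preincubated with compound in 25 mM Bis-tris propane, 0.05% HPMC, pH 7.75, then reacted 1 h at 23 °C with 10-mer WRVYEKC(Dnp)ALK (100 μM solution added in equal volume). Fluorescence read at ex 279/em 355 nm; IC50 from 4-parameter fit.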

Row | SMILES | IC50 [nM]
1 | COc1ccc(C(=O)O)cc1S(=O)(=O)Nc1cc(C(F)(F)F)ccc1-c1ccncc1 [Example 14, 4-methoxy-3-(N-(2-(pyridin-4-yl)-5-(trifluoromethyl)phenyl)sulfamoyl)benzoic acid] | > 5000
2 | CC(C)(C)c1ccc(C(=O)O)cc1S(=O)(=O)Nc1cc(C#N)ccc1-c1ccccn1 [Example 173, 4-(tert-butyl)-3-(N-(5-cyano-2-(pyridin-2-yl)phenyl)sulfamoyl) benzoic acid] | < 5000
3 | CCc1ccc(C(=O)O)cc1S(=O)(=O)Nc1cc(C(F)(F)F)ccc1-c1ccccc1 [Example 19, 4-ethyl-3-(N-(4-(trifluoromethyl)-[1,1′-biphenyl]-2-yl)sulfamoyl) benzoic acid] | < 500
4 | COc1ccc(C(=O)O)cc1S(=O)(=O)Nc1cc(C(F)(F)F)ccc1-n1cncn1 [Example 28, 3-(N-(2-(1,2,4-triazol-1-yl)-5-(trifluoromethyl)phenyl)sulfamoyl)-4-methoxybenzoic acid] | > 5000
5 | Cn1nccc1-c1cc(NS(=O)(=O)c2cc(C(=O)O)ccc2C2CC2)c(-n2cccc2)cc1Cl [Example 200, 3-(N-(4-chloro-5-(1-methylpyrazol-5-yl)-2-(pyrrol-1-yl)phenyl)sulfamoyl)-4-cyclopropylbenzoic acid] | < 500
6 | N#Cc1ccc(-c2ccc(F)s2)c(NS(=O)(=O)c2cc(C(=O)O)ccc2C2CC2)c1 [Example 102, 3-(N-(5-cyano-2-(5-fluorothiophen-2-yl)phenyl)sulfamoyl)-4-cyclopropylbenzoic acid] | < 500
7 | O=C(O)c1ccc(C2CC2)c(S(=O)(=O)Nc2cc(-c3ccns3)c(Cl)cc2-c2ccccn2)c1 [Example 191, 3-(N-(4-chloro-5-(isothiazol-5-yl)-2-(pyridin-2-yl)phenyl)sulfamoyl)-4-cyclopropylbenzoic acid] | < 500
8 | COc1ccc(C(=O)O)cc1S(=O)(=O)Nc1cc(-c2nnn[nH]2)ccc1-c1ccccc1 [Example 63, 3-(N-(4-(tetrazol-5-yl)-[1,1′-biphenyl]-2-yl)sulfamoyl)-4-methoxybenzoic acid] | < 500
9 | COc1ccc(C(=O)O)cc1S(=O)(=O)Nc1cc(C(F)(F)F)ccc1-c1ccccc1F [Example 9, 3-(N-(2′-fluoro-4-(trifluoromethyl)-[1,1′-biphenyl]-2-yl)sulfamoyl)-4-methoxybenzoic acid] | < 500
10 | COc1ccc(C(=O)O)cc1S(=O)(=O)Nc1cc(C(F)(F)F)ccc1-c1ccoc1 [Example 18, 3-(N-(2-(furan-3-yl)-5-(trifluoromethyl)phenyl)sulfamoyl)-4-methoxybenzoic acid] | < 500
11 | O=C(O)c1ccc(C2CC2)c(S(=O)(=O)Nc2cc(-n3cnnn3)c(Cl)cc2-n2cccc2)c1 [Example 206, 3-(N-(4-chloro-2-(pyrrol-1-yl)-5-(tetrazol-1-yl)phenyl)sulfamoyl)-4-cyclopropylbenzoic acid] | < 500
12 | COc1ccc(C(=O)O)cc1S(=O)(=O)Nc1cc(C#N)ccc1-c1ccc(C#N)s1 [Example 119, 3-(N-(5-cyano-2-(5-cyanothiophen-2-yl)phenyl)sulfamoyl)-4-methoxybenzoic acid] | < 500
13 | COc1ccc(C(=O)O)cc1S(=O)(=O)Nc1cc(C(F)(F)F)ccc1-c1ccnn1CC(C)C [Example 5, 3-(N-(2-(1-isobutylpyrazol-5-yl)-5-(trifluoromethyl)phenyl)sulfamoyl)-4-methoxybenzoic acid] | < 5000
14 | COc1ccc(C(=O)O)cc1S(=O)(=O)Nc1cc(S(C)(=O)=O)ccc1-c1ccc(C)s1 [Example 85, 4-methoxy-3-(N-(5-(methylsulfonyl)-2-(5-methylthiophen-2-yl)phenyl)sulfamoyl)benzoic acid] | < 500
15 | COc1ccc(C(=O)O)cc1S(=O)(=O)Nc1cc(C(F)(F)F)ccc1-c1ccco1 [Example 23, 3-(N-(2-(furan-2-yl)-5-(trifluoromethyl)phenyl)sulfamoyl)-4-methoxybenzoic acid] | < 500
16 | CCc1ccc(C(=O)O)cc1S(=O)(=O)Nc1cc(C(F)(F)F)ccc1-c1nccs1 [Example 128, 4-ethyl-3-(N-(2-(thiazol-2-yl)-5-(trifluoromethyl)phenyl)sulfamoyl)benzoic acid] | < 500
17 | COc1ccc(C(=O)O)cc1S(=O)(=O)Nc1cc(C#N)ccc1-c1ccc(Cl)s1 [Example 90, 3-(N-(2-(5-chlorothiophen-2-yl)-5-cyanophenyl)sulfamoyl)-4-methoxybenzoic acid] | < 500
18 | O=C(O)c1ccc(C2CC2)c(S(=O)(=O)Nc2cc(-c3ccns3)ccc2-c2ccccn2)c1 [Example 139, 4-cyclopropyl-3-(N-(5-(isothiazol-5-yl)-2-(pyridin-2-yl)phenyl)sulfamoyl)benzoic acid] | < 500
19 | CCc1ccc(C(=O)O)cc1S(=O)(=O)Nc1cc(C#N)ccc1-n1cccc1 [Example 107, 3-(N-(5-cyano-2-(pyrrol-1-yl)phenyl)sulfamoyl)-4-ethylbenzoic acid] | < 500
20 | COc1ccc(C(=O)O)cc1S(=O)(=O)Nc1cc(C(F)(F)F)ccc1-c1ccc(C#N)cc1 [Example 16, 3-(N-(4′-cyano-4-(trifluoromethyl)-[1,1′-biphenyl]-2-yl)sulfamoyl)-4-methoxybenzoic acid] | < 5000
21 | CCc1ccc(C(=O)O)cc1S(=O)(=O)Nc1cc(C(F)(F)F)ccc1-n1cccn1 [Example 31, 3-(N-(2-(pyrazol-1-yl)-5-(trifluoromethyl)phenyl)sulfamoyl)-4-ethylbenzoic acid] | < 500
22 | CCc1ccc(C(=O)O)cc1S(=O)(=O)Nc1cc(C#N)ccc1-c1cccc(C#N)c1 [Example 42, 3-(N-(3′,4-dicyano-[1,1′-biphenyl]-2-yl)sulfamoyl)-4-ethylbenzoic acid] | < 500
23 | COc1ccc(C(=O)O)cc1S(=O)(=O)Nc1cc(C(F)(F)F)ccc1-c1cccc(C)c1 [Example 6, 4-methoxy-3-(N-(3′-methyl-4-(trifluoromethyl)-[1,1′-biphenyl]-2-yl)sulfamoyl)benzoic acid] | < 500
24 | CS(=O)(=O)c1ccc(-n2cccc2)c(NS(=O)(=O)c2cc(C(=O)O)ccc2C2CC2)c1 [Example 110, 4-cyclopropyl-3-(N-(5-(methylsulfonyl)-2-(pyrrol-1-yl)phenyl)sulfamoyl) benzoic acid] | < 500
25 | COc1cccc(-c2ccc(C(F)(F)F)cc2NS(=O)(=O)c2cc(C(=O)O)ccc2OC)c1 [Example 17, 4-methoxy-3-(N-(3′-methoxy-4-(trifluoromethyl)-[1,1′-biphenyl]-2-yl)sulfamoyl)benzoic acid] | < 5000
26 | COc1ccc(C(=O)O)cc1S(=O)(=O)Nc1cc(C#N)ccc1-c1cccc(F)c1 [Example 61, 3-(N-(4-cyano-3′-fluoro-[1,1′-biphenyl]-2-yl)sulfamoyl)-4-methoxybenzoic acid] | < 500
27 | CCc1ccc(C(=O)O)cc1S(=O)(=O)Nc1cc(-n2cnnn2)ccc1-c1ccccc1 [Example 52, 3-(N-(4-(tetrazol-1-yl)-[1,1′-biphenyl]-2-yl)sulfamoyl)-4-ethylbenzoic acid] | < 500
28 | CCc1ccc(C(=O)O)cc1S(=O)(=O)Nc1cc(S(C)(=O)=O)ccc1-c1cccc(F)c1 [Example 33, 4-ethyl-3-(N-(3′-fluoro-4-(methylsulfonyl)-[1,1-biphenyl]-2-yl)sulfamoyl)benzoic acid] | < 500
